The text below walks through data of patent publication US9452986B2, “6-heteroaryloxy- or 6-aryloxy-quinoline-2-carboxamides and method of use” (AbbVie Inc., priority 2014, dated 2016).

The experiment deals with recombinant human Nav1.7 (Homo sapiens (Human), UniProt Q15858). Nature of the experiment: FRET-based membrane potential assay, recombinant human sodium channel Nav1.7. Type of experiment: cell-based. An outline of the steps: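 Channel activation used veratridine at its EC80, set by a dilution curve each experiment, together with Leiurus scorpion venom, added 3 min after compound. Membrane-potential ratio signals from FLIPR Tetra in HEPES-buffered HBSS were fitted to a four-parameter Hill equation for percent inhibition and IC50.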

Where [1] appears, read: read-out: FRET-Membrane Potential Nav1.7 IC50.
[2] abbreviates: HEK293 cells stably expressing recombinant human Nav1.7, veratridine + scorpion venom depolarization, read-out: FRET-Membrane Potential Nav1.7 IC50.

A word on the pIC50: it is −log10 of the IC50, conventionally taken in molar units.

pIC50: −log10 of the molar value. Where two headings read alike, the source gives them in different places.

Chain of recombinant human Nav1.7 (Q15858 whole entry): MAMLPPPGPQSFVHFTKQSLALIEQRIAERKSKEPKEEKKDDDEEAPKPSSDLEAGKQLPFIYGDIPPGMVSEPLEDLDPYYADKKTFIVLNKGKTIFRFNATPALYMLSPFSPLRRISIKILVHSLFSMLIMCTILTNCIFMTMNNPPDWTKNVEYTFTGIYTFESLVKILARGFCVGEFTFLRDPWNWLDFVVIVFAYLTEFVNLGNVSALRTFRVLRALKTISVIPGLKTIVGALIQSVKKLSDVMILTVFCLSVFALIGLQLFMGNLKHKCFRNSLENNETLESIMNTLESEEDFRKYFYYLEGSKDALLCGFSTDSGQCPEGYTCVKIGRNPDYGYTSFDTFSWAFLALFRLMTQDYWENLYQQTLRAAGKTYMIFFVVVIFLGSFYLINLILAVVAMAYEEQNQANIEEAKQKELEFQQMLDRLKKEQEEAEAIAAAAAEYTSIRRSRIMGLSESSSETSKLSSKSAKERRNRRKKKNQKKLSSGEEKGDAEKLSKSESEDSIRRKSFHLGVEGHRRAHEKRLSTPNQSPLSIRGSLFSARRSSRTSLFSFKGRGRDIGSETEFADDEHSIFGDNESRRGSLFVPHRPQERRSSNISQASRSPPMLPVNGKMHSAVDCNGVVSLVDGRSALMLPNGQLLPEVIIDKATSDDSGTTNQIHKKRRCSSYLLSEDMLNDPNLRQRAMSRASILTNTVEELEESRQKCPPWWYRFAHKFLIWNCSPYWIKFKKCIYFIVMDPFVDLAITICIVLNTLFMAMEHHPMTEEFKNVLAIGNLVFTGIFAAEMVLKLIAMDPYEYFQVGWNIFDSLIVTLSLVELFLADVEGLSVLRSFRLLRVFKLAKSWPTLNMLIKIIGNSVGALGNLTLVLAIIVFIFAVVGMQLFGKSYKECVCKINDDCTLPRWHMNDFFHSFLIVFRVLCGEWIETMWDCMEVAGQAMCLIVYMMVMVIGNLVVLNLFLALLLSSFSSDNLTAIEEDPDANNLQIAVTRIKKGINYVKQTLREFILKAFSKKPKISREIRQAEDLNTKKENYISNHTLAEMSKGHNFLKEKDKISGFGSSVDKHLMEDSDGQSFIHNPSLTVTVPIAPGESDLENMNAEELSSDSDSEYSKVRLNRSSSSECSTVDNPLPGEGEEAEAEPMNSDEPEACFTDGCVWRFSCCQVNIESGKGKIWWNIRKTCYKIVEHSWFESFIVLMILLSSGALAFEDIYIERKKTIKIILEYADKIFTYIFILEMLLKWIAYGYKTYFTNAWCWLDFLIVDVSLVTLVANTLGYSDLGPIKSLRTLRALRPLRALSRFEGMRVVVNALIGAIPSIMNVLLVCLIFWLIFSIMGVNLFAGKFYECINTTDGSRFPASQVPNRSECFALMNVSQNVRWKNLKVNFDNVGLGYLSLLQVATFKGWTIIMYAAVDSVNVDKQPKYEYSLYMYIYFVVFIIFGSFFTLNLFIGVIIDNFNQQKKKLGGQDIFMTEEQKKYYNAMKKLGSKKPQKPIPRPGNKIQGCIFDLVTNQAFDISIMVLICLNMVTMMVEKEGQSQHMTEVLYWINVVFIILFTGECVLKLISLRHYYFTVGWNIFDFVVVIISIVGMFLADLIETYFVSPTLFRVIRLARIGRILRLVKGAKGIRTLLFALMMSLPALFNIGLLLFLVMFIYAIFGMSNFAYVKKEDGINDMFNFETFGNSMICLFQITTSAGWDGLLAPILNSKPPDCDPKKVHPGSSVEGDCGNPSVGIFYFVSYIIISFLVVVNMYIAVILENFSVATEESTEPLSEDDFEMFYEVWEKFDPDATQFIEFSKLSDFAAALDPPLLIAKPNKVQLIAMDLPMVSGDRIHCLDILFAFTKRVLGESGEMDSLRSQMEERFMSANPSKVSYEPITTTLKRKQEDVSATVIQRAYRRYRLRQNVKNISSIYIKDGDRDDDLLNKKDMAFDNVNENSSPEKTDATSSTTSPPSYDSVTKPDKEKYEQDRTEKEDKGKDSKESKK

`CC(=O)N[C@@H]1CCN(C(=O)c2ccc3cc(Oc4ccc(C(F)(F)F)cn4)ccc3n2)C1` [Example 438, N-{(3R)-1-[(6-{[5-(trifluoromethyl)pyridin-2-yl]oxy}quinolin-2-yl)carbonyl]pyrrolidin-3-yl}acetamide]: the pIC50 under setting [1] was 4.90.
With `O=C(c1ccc2cc(Oc3ccc(C(F)(F)F)cn3)ccc2n1)N1CC[C@@H](O)[C@H](F)C1` (relative stereo) [Example 195, [trans-3-fluoro-4-hydroxypiperidin-1-yl](6-{[5-(trifluoromethyl)pyridin-2-yl]oxy}quinolin-2-yl)methanone], the pIC50 (FRET-Membrane Potential Nav1.7 IC50) was 5.12.
For the compound `O=C(c1ccc2cc(Oc3ccc(C(F)(F)F)cn3)ccc2n1)N1C[C@H]2C[C@@H]1CN2` [Example 241, (1R,4R)-2,5-diazabicyclo[2.2.1]hept-2-yl(6-{[5-(trifluoromethyl)pyridin-2-yl]oxy}quinolin-2-yl)methanone], the pIC50 under setting [2] was 5.73.
For the compound `O=C(NC1CC(F)(F)C1)c1ccc2cc(Oc3ccc(C(F)(F)F)nc3)ccc2n1` [Example 555, N-(3,3-difluorocyclobutyl)-6-{[6-(trifluoromethyl)pyridin-3-yl]oxy}quinoline-2-carboxamide], the pIC50 under setting [2] was 5.57.
For the compound `N#Cc1ccc(Oc2ccc3nc(C(=O)NCCN4CCOCC4)ccc3c2)cc1` [Example 86, 6-(4-cyanophenoxy)-N-[2-(morpholin-4-yl)ethyl]quinoline-2-carboxamide], the pIC50 under setting [1] is 5.76.
As to `O=C(c1ccc2cc(Oc3ccc(C(F)(F)F)cn3)ccc2n1)N1CC(Oc2ccc(Br)cc2)C1` [Example 206, [3-(4-bromophenoxy)azetidin-1-yl](6-{[5-(trifluoromethyl)pyridin-2-yl]oxy}quinolin-2-yl)methanone], the pIC50 under setting [2] is less than 4.70.
Regarding `O=C(NC1CSC1)c1ccc2cc(Oc3ccc(C(F)(F)F)cn3)ccc2n1` [Example 499, N-(thietan-3-yl)-6-{[5-(trifluoromethyl)pyridin-2-yl]oxy}quinoline-2-carboxamide], the pIC50 under setting [2] is 6.03.
Take `O=C(NCC1(O)CCOCC1)c1ccc2cc(Oc3ccc(C(F)(F)F)cn3)ccc2n1` [Example 362, N-[(4-hydroxytetrahydro-2H-pyran-4-yl)methyl]-6-{[5-(trifluoromethyl)pyridin-2-yl]oxy}quinoline-2-carboxamide]: under setting [2], the pIC50 is 6.00.
`O=C(c1ccc2cc(Oc3ccc(C(F)(F)F)cn3)ccc2n1)N1CCC12CNC2` [Example 279, 1,6-diazaspiro[3.3]hept-1-yl(6-{[5-(trifluoromethyl)pyridin-2-yl]oxy}quinolin-2-yl)methanone]: the pIC50 under setting [2] is 5.25.
Regarding `CC1(C)C[C@@H](NC(=O)c2ccc3cc(Oc4ccc(C#N)cc4)ccc3n2)c2cc(F)ccc2O1` [Example 141, 6-(4-cyanophenoxy)-N-[(4R)-6-fluoro-2,2-dimethyl-3,4-dihydro-2H-chromen-4-yl]quinoline-2-carboxamide], under setting [2], the pIC50 was less than 4.70.
With `O=C(NC1CCC1)c1ccc2cc(Oc3ccc(C(F)(F)F)cn3)ccc2n1` [Example 596, N-cyclobutyl-6-{[5-(trifluoromethyl)pyridin-2-yl]oxy}quinoline-2-carboxamide], the negative logarithm of the IC50 (pIC50) under setting [2] is 5.75.
With `CC(=O)NCC(C)CNC(=O)c1ccc2cc(Oc3ccc(C(F)(F)F)cn3)ccc2n1` (centres unmarked) [Example 610, N-(3-acetamido-2-methylpropyl)-6-{[5-(trifluoromethyl)pyridin-2-yl]oxy}quinoline-2-carboxamide], the pIC50 under setting [2] was 5.56.
On to `O=C(NCCC(=O)N1CCOCC1)c1ccc2cc(Oc3ccc(C(F)F)cn3)ccc2n1` [Example 459, 6-{[5-(difluoromethyl)pyridin-2-yl]oxy}-N-[3-(morpholin-4-yl)-3-oxopropyl]quinoline-2-carboxamide], for which the pIC50 under setting [2] was 5.06.
As for `CN1CCN(C(=O)c2ccc3cc(Oc4ccc(C(F)(F)F)cn4)ccc3n2)CC1` [Example 211, (4-methylpiperazin-1-yl)(6-{[5-(trifluoromethyl)pyridin-2-yl]oxy}quinolin-2-yl)methanone], under setting [2], the pIC50 was 5.71.
Regarding `Cc1cc(C)nc(Oc2ccc3nc(C(=O)NC4CCS(=O)(=O)C4)ccc3c2)n1` (centres unmarked) [Example 162, 6-[(4,6-dimethylpyrimidin-2-yl)oxy]-N-(1,1-dioxidotetrahydrothiophen-3-yl)quinoline-2-carboxamide], the pIC50 under setting [2] is less than 4.70.
Consider `CN(C)C(=O)[C@@H]1C[C@@H](F)CN1C(=O)c1ccc2cc(Oc3ccc(C(F)(F)F)cn3)ccc2n1` [Example 509, (4R)-4-fluoro-N,N-dimethyl-1-[(6-{[5-(trifluoromethyl)pyridin-2-yl]oxy}quinolin-2-yl)carbonyl]-L-prolinamide], for which the pIC50 under setting [2] was 5.58.
Regarding `COCCn1cc(S(=O)(=O)N2CCN(C(=O)c3ccc4cc(Oc5ccc(C(F)(F)F)cn5)ccc4n3)CC2)cn1` [Example 384, (4-{[1-(2-methoxyethyl)-1H-pyrazol-4-yl]sulfonyl}piperazin-1-yl)(6-{[5-(trifluoromethyl)pyridin-2-yl]oxy}quinolin-2-yl)methanone], the pIC50 under setting [2] is 5.71.
Still for that read-out and setting: the result for `O=C(NCC1(O)CCC1)c1ccc2cc(Oc3ccc(C(F)(F)F)cn3)ccc2n1` [Example 336, N-[(1-hydroxycyclobutyl)methyl]-6-{[5-(trifluoromethyl)pyridin-2-yl]oxy}quinoline-2-carboxamide] reads 6.36.
Regarding `CC(O)CNC(=O)c1ccc2cc(Oc3ccc(C#N)cc3)ccc2n1` (centres unmarked) [Example 128, 6-(4-cyanophenoxy)-N-(2-hydroxypropyl)quinoline-2-carboxamide], under setting [1], the pIC50 is 5.55.
For the compound `N#Cc1ccc(Oc2ccc3nc(C(=O)NCc4ncco4)ccc3c2)cc1` [Example 144, 6-(4-cyanophenoxy)-N-(1,3-oxazol-2-ylmethyl)quinoline-2-carboxamide], the negative-log IC50 (pIC50) under setting [2] was 6.08.
Regarding `NC1CCN(C(=O)c2ccc3cc(Oc4ccc(C(F)(F)F)cn4)ccc3n2)CC1` [Example 403, (4-aminopiperidin-1-yl)(6-{[5-(trifluoromethyl)pyridin-2-yl]oxy}quinolin-2-yl)methanone], the pIC50 under setting [2] is 5.01.
Regarding `NCCNC(=O)c1ccc2cc(Oc3ccc(C(F)(F)F)cn3)ccc2n1` [Example 338, N-(2-aminoethyl)-6-{[5-(trifluoromethyl)pyridin-2-yl]oxy}quinoline-2-carboxamide], under setting [2], the negative-log IC50 (pIC50) was 6.01.
Consider `O=C(NC1COCC1O)c1ccc2cc(Oc3ccc(C(F)(F)F)cn3)ccc2n1` (centres unmarked) [Example 371, N-(4-hydroxytetrahydrofuran-3-yl)-6-{[5-(trifluoromethyl)pyridin-2-yl]oxy}quinoline-2-carboxamide], for which the pIC50 under setting [2] is 5.84.
`O=C(c1ccc2cc(Oc3ccc(C(F)F)cn3)ccc2n1)N1CCN[C@H](CO)C1` [Example 585, (6-{[5-(difluoromethyl)pyridin-2-yl]oxy}quinolin-2-yl) [(3S)-3-(hydroxymethyl)piperazin-1-yl]methanone]: under setting [2], the pIC50 was less than 4.70.
Turning to `N#CCCCN1CCN(C(=O)c2ccc3cc(Oc4ccc(C(F)(F)F)cn4)ccc3n2)CC1` [Example 472, 4-{4-[(6-{[5-(trifluoromethyl)pyridin-2-yl]oxy}quinolin-2-yl)carbonyl]piperazin-1-yl}butanenitrile], the pIC50 under setting [2] is 5.11.
Still for that read-out and setting: under `O=C(c1ccc2cc(Oc3ccc(C(F)(F)F)nc3)ccc2n1)N1CC=CC1` [Example 539, 2,5-dihydro-1H-pyrrol-1-yl(6-{[6-(trifluoromethyl)pyridin-3-yl]oxy}quinolin-2-yl)methanone] stands less than 4.70.
